Patent US20080248077A1, “Formulation” (ASTRAZENECA AB, priority 2005, published 2008)
In brackets after ≈: the same amount, converted by molar mass. Like-named read-outs stand apart in the source and are kept apart here.

Assay: water solubility of anastrozole
Type: physicochemical

With `CC(C)(C#N)c1cc(Cn2cncn2)cc(C(C)(C)C#N)c1` [anastrozole, Anastrozole] the solubility (at 25° C., read-out: water solubility) was 530 µg/mL (≈ 1810 µM) and the solubility (read-out: aqueous solubility) was 530 µg/mL (≈ 1810 µM).
